In patent US8097282B2, “Methods of administering liquid droplet aerosols of nanoparticulate drugs” (Alkermes Pharma Ireland Limited, priority 1995, dated 2012):

What was measured:
[1] = test system: rabbit's pulmonary region; assay: Computed tomography (CT) after administration of ultrasonically nebulized formulation to an intubated anesthetized rabbit; type: in vivo; conditions: ultrasonic nebulizer, several minutes, 30% suspension in 6% F108
Experimental: (§1) In this example, a suspension of WIN 68209 (30%) in aqueous F108 surfactant (6%) was prepared by conventional roller milling techniques (jar mill, zirconium silicate beads, 7 days milling time). The mean particle size of the resultant distribution was 196 nm. The formulation was administered to an anesthetized rabbit as follows: Several mL of formulation was placed in an ultrasonic nebulizer (DeVilbiss AeroSonic™) which was connected in-line with a mechanical ventilator, terminating in a suitable endotracheal tube. The rabbit was then intubated and administered the nebulized formulation for several minutes.

[2] = Mean particle size of roller-milled WIN 68209 suspension; type: physicochemical; conditions: 30% suspension in aqueous F108 surfactant (6%), 7 days roller milling
Experimental: as §1

[3] = type: physicochemical
Experimental: Nanoparticle Preparation and Characterization. Nanoparticles were prepared by media milling a suspension of 5% beclomethasone diproprionate in an aqueous solutions of PVA. Thus, the PVA was the surface modifier. The resulting particle size distribution was determined by dynamic light scattering. The particle size distribution was periodically monitored throughout the course of the study. […] In addition, particle size of the diluted dispersions remained constant for at least the duration of the experiment.

| Compound | CT scans of pulmonary region after nebulized administration [1] | mean particle size [2] | chemical stability [3] | particle size stability [3] | particle size distribution ([3]; nanoparticles in 2.5% polyvinyl alcohol) |
| --- | --- | --- | --- | --- | --- |
| CCOC(=O)C=C(COC(=O)c1c(I)c(NC(C)=O)c(I)c(NC(C)=O)c1I)OCC [WIN 68209, benzoic acid, 3,5-bis(acetylamino)-2,4,6triodo-, 4(ethyl-3-ethoxy-2-butenoate) ester] | showed the presence of radiopaque contrast agent in the region | 196 nm | – | – | – |
| CCC(=O)OCC(=O)[C@@]1(OC(=O)CC)[C@@H](C)C[C@H]2[C@@H]3CCC4=CC(=O)C=C[C@]4(C)[C@@]3(Cl)[C@@H](O)C[C@@]21C.O [beclomethasone diproprionate, Beclomethasone diproprionate] | – | – | neither was there any evidence of chemical instability | remained constant throughout the course of the study | 0.26±0.13 micrometer |
